Measurements: patent US20250326742A1, “THERAPEUTIC COMPOUNDS” (RUTGERS, THE STATE UNIVERSITY OF NEW JERSEY, priority 2024, published 2025)

How the values were obtained:
SARS-CoV-2 PLpro = SARS-CoV-2 PLpro (Severe acute respiratory syndrome coronavirus 2, UniProt P0DTD1); test: biochemical; conditions: 200 nM PLpro, 10 μM FRET substrate, 30 min preincubation at 30° C.
Method: FRET-Based PL^pro Enzymatic Assay
The SARS-CoV-2 PL^pro enzymatic assays were carried out as follows: The assay was assembled in 96-well plates with 100 μl of 200 nM PL^Pro protein in PL^Pro reaction buffer [50 mM Hepes (pH 7.5), 0.01% Triton X-100, and 5 mM DTT]. Then, 1 μl of testing compound at various concentrations was added to each well and incubated at 30° C. for 30 minutes. The enzymatic reaction was initiated by adding 1 μl of 1 mM FRET substrate (the final substrate concentration is 10 μM). The reaction was monitored in a Cytation 5 image reader with filters for excitation at 360/40 nm and emission at 460/40 nm at 30° C. for 1 hour. The initial velocity of the enzymatic reaction with and without testing compounds was calculated by linear regression for the first 15 minutes of the kinetic progress curve. The ICso values were calculated by plotting the initial velocity against various concentrations of testing compounds with a dose-response function in Prism 8 software.

[1] = Cytotoxicity assay in Vero E6 cells (neutral red uptake); format: cell-based; conditions: African green monkey, 2 days at 37° C.
Method: (§1) Cytotoxicity Assay in Vero E6 Cells
(§2) Briefly, 80,000 cells/ml of the tested cell lines were dispensed into 96-well cell culture plates at 100 μl per well. Twenty-four hours later, the growth medium was removed and washed with 150 μl of PBS buffer. Two hundred microliters of fresh serum-free medium containing serial diluted compounds was added to each well. After incubating for 2 days at 37° C., the medium was removed and replaced with 100 μl of DMEM medium containing neutral red (40 μg/ml) and incubated for 2 to 4 hours at 37° C. The amount of neutral red taken up was determined by measuring the absorbance at 540 nm using a Multiskan FC Microplate Photometer (Thermo Fisher Scientific). The CC50 values were calculated from best-fit dose-response curves with variable slope in Prism 8.

[2] = test system: SARS-CoV-2 viral replication; conditions: cited from earlier work
Vero E6 cells = test: Cytotoxicity assay in Vero E6 cells (neutral red uptake); format: cell-based; conditions: 2 days at 37° C.
Method: as §1, §2

Row | Molecule | IC50 (SARS-CoV-2 PLpro) | CC50 at 2 days [1] | EC50 [2] | CC50 (Vero E6 cells)
1 | CCOC(=O)/C=C/C(=O)NCC(=O)NCc1ccccc1C(=O)NC1(c2cc(-c3cnn(C)c3)cc(-c3ccn(CC)n3)c2)CC1 [Example 23, ethyl (E)-4-((2-((2-((1-(3-(1-ethyl-1H-pyrazol-3-yl)-5-(1-methyl-1H-pyrazol-4-yl)phenyl)cyclopropyl)carbamoyl)benzyl)amino)-2-oxoethyl)amino)-4-oxobut-2-enoate] | 1 to 5 µM | > 500 µM |  | 
2 | CCn1ccc(-c2cc(-c3cnn(C)c3)cc(C3(NC(=O)c4ccccc4CNC(=O)CNC(=O)/C=C/C(=O)N4CC(F)(F)C4)CC3)c2)n1 [Example 24, (E)-2-((2-(4-(3,3-difluoroazetidin-1-yl)-4-oxobut-2-enamido)-acetamido)methyl)-N-(1-(3-(1-ethyl-1H-pyrazol-3-yl)-5-(1-methyl-1H-pyrazol-4-yl)phenyl)cyclopropyl)benzamide] | 1 to 5 µM | > 500 µM |  | 
3 | CCn1ccc(-c2cc(-c3cnn(C)c3)cc([C@@H](C)NC(=O)c3ccccc3CNC(=O)CNC(=O)/C=C/C(=O)N3CC(F)(F)C3)c2)n1 [Example 25, (R,E)-2-((2-(4-(3,3-difluoroazetidin-1-yl)-4-oxobut-2-enamido)acetamido)methyl)-N-(1-(3-(1-ethyl-1H-pyrazol-3-yl)-5-(1-methyl-1H-pyrazol-4-yl)phenyl)ethyl)benzamide] | < 1 µM | > 500 µM |  | 
4 | CCn1ccc(-c2cc(-c3cnn(C)c3)cc([C@@H](C)NC(=O)c3ccccc3CCC(=O)NNC(=O)C34CC(C3)C4)c2)n1 [Example 27, (R)-2-(3-(2-(bicyclo[1.1.1]pentane-1-carbonyl)hydrazineyl)-3-oxopropyl)-N-(1-(3-(1-ethyl-1H-pyrazol-3-yl)-5-(1-methyl-1H-pyrazol-4-yl)phenyl)ethyl)benzamide] | > 5 µM | > 250 µM |  | 
5 | CCn1ccc(-c2cc(-c3cnn(C)c3)cc([C@@H](C)NC(=O)c3ccccc3CCC(=O)NCC(=O)CF)c2)n1 [Example 28, (R)-N-(1-(3-(1-ethyl-1H-pyrazol-3-yl)-5-(1-methyl-1H-pyrazol-4-yl)phenyl)ethyl)-2-(3-((3-fluoro-2-oxopropyl)amino)-3-oxopropyl)benzamide] | > 5 µM | > 250 µM |  | 
6 | C=CC(=O)NCC(=O)NCc1ccccc1C(=O)N[C@H](C)c1cc(-c2cnn(C)c2)cc(-c2ccn(C)n2)c1 [Example 29, (R)-2-((2-acrylamidoacetamido)methyl)-N-(1-(3-(1-methyl-1H-pyrazol-3-yl)-5-(1-methyl-1H-pyrazol-4-yl)phenyl)ethyl)benzamide] | > 5 µM | > 500 µM |  | 
7 | C=CS(=O)(=O)NCC(=O)NCc1ccccc1C(=O)N[C@H](C)c1cc(-c2cnn(C)c2)cc(-c2ccn(C)n2)c1 [Example 30, (R)-N-(1-(3-(1-methyl-1H-pyrazol-3-yl)-5-(1-methyl-1H-pyrazol-4-yl)phenyl)ethyl)-2-((2-(vinylsulfonamido)acetamido)methyl)benzamide] | < 1 µM | > 250 µM |  | 
8 | C[C@@H](NC(=O)c1ccccc1CNC(=O)CNC(=O)CC#N)c1cc(-c2cnn(C)c2)cc(-c2ccn(C)n2)c1 [Example 31, (R)-2-((2-(2-cyanoacetamido)acetamido)methyl)-N-(1-(3-(1-methyl-1H-pyrazol-3-yl)-5-(1-methyl-1H-pyrazol-4-yl)phenyl)ethyl)benzamide] | > 5 µM | > 500 µM |  | 
9 | Cc1ccc(N)cc1C(=O)N[C@H](C)c1cccc2ccccc12 [GRL0617] |  |  | ~20 µM | 
10 | (R)-2-(3-((2-Cyanoethyl)amino)-3-oxopropyl)-N-(1-(3-(1-ethyl-1H-pyrazol-3-yl)-5-(1-methyl-1H-pyrazol-4-yl)phenyl)ethyl)benzamide [Example 1] | > 5 µM |  |  | 146 µM
